Laboratory results reported in patent US20050095606A1, “Partially double-stranded nucleic acids, methods of making, and use thereof” (priority 2001, published 2005).

Tests used:
Assay type in all cases: cell-based
Settings in all cases: 6 hours
[1] = test system: C-myc; assay: Flow-Thru Chip gene expression analysis after multiplex RT-PCR, MCF-7 cells
Excerpt: (§1) MCF-7 cells are estrogen responsive breast adenocarcinoma cells that have been used previously as a model system for evaluation of breast cancer drugs. Initial studies have examined the effect of an anti-estrogen, tamoxifen, on the estradiol response of MCF-7 cells. Estradiol stimulates cell proliferation through the G1 phase in synchronized cell growth studies. Tamoxifen treatment of cells inhibits the induction of several genes that occur upon estradiol treatment by blocking estrogen receptor cofactors required for transcription. The Flow-Thru Chip™has been used as an analysis platform for a set of genes reported in the literature as differentially regulated in the MCF-7 system under estradiol and tamoxifen treatment. TAQMAN® PCR was performed to measure the changes in expression levels for each of the monitored genes across the treatments.
(§2) The experimental protocols for estradiol and tamoxifen treatment have been described in detail elsewhere (Wosikowski et al., Int. J. Cancer 53:290-297 (1993)). In this study MCF-7 (ATTC, Manassas, Va.) cells were maintained in MEM alpha medium supplemented with 10% heat-inactivated fetal bovine serum, Penicillin-Streptomycin and 10 μg/ml bovine insulin (complete medium) (Life Technologies, Gaithersburg, Md.). […] The purity and integrity of the total RNA was assessed by the 260/280 absorbance and the 28s/18s RNA ratios.
(§3) Analysis of genes under test by the Flow-Thru Chip™ required amplification from the total RNA. […] The appropriate number of cycles for each grouping of target nucleic acids was determined empirically to assure that all targets in the group were in the linear dynamic range of the chip and had not reached primer limitation in the PCR amplification. […]
(§4) The ability to multiplex target nucleic acids under study was confirmed by TAQMAN®, analysis of the singleplex and multiplex amplifications. […] Changes in expression level between samples were determined by comparing the brightness of gene-spots measured for each target nucleic acid relative to a reference target nucleic acid, β-actin. […]

[2] = test system: C-myc; assay: TAQMAN PCR gene expression analysis, MCF-7 cells
Excerpt: as §1, with “The Flow-Thru Chip™has been used as an analysis platform for a set of genes reported in the literature as differentially regulated in the MCF-7 system under estradiol and tamoxifen treatment.” left out
The experimental protocols for estradiol and tamoxifen treatment have been described in detail elsewhere (Wosikowski et al., Int. J. Cancer 53:290-297 (1993)). […] The purity and integrity of the total RNA was assessed by the 260/280 absorbance and the 28s/18s RNA ratios.
as §4

[3] = test system: 12 target nucleic acids in MCF-7 cells; assay: Change in expression level of 12 target nucleic acids across cell treatments (Flow-Thru Chip and TAQMAN)
Excerpt: as §1, §2, §3, §4

Row | Structure (SMILES) | C-myc fold up-regulation ([1]; 10 nM 17-beta-estradiol, relative to vehicle control (=1.0), reference β-actin, Flow-Thru Chip) | C-myc fold up-regulation ([2]; 10 nM 17-beta-estradiol, relative to vehicle control (=1.0), reference β-actin, TAQMAN) | effect on expression of the target nucleic acids ([3]; 10 nM 17-beta-estradiol) | influence on C-myc expression ([1]; 1 μM tamoxifen alone, method not stated) | C-myc fold increase ([1]; 1 μM tamoxifen in conjunction with 10 nM 17-beta-estradiol, Flow-Thru Chip (same by both methods)) | C-myc fold increase ([2]; 1 μM tamoxifen in conjunction with 10 nM 17-beta-estradiol, TAQMAN (same by both methods)) | effect on estradiol induction of the set of target nucleic acids ([3]; 1 μM tamoxifen added to 10 nM 17-beta-estradiol) | influence on expression of any of the target nucleic acids ([3]; 1 μM tamoxifen alone)
1 | C[C@]12CC[C@@H]3c4ccc(O)cc4CC[C@H]3[C@@H]1CC[C@@H]2O [estradiol, 17-beta-estradiol] | 23±4 fold | 27±6 fold | induces expression |  |  |  |  | 
2 | CC/C(=C(\c1ccccc1)c1ccc(OCCN(C)C)cc1)c1ccccc1 [tamoxifen] |  |  |  | no influence | roughly 8 fold | roughly 8 fold | suppresses the induction | little influence
